For one series, the target named is PRMT5 (Homo sapiens (Human), UniProt O14744). Put plainly: PRMT5 Chemiluminescent Assay. The format is biochemical. Conditions: PRMT5 chemiluminescent assay kit (BPS Bioscience), histone H4 peptide substrate, eight-point dose response. As for the experimental part: The PRMT5 activity is measured by using “PRMT5 Chemiluminescent Assay Kit” from BPS Bioscience, Catalog Number 52002L as per the instructions of the manufacturer. Briefly, the PRMT5 enzyme is incubated with S-adenosylmethionine in a 96-well plate precoated with histone H4 peptide substrate. Next, a highly specific antibody that recognizes methylated R3 residue of Histone H4 is added followed by a horseradkish peroxidase-labeled (HRP-labeled) secondary antibody. Detection is done by the addition of the HRP substrate to produce chemiluminescence that can be measured quantitatively.
Compounds were serially diluted 3-fold and dosed from 10 uM down to 0 uM. Compounds were tested in duplicates to generate an eight-point dose response for the calculation of their IC50s.

For another series, the system named is Z-138 cells. The experiment in a line: Z138 Cell Proliferation Assay. The class given is cell-based. Conditions: Z-138 human mantle cell lymphoma cells, 72 hours, CTG readout. As for the experimental part:
Human Mantle Cell Lymphoma
Z-138 cells were plated in a 96-well plate in IMDM medium containing 10% Horse Serum and PenStrep at a density of 10,000 cells/well. The plates were incubated at 37° C. in a humidified, 5% CO2 incubator. The next day, serially diluted compounds were added in duplicates for 72 hours. Compounds were tested at 10, 2.5, 0.625, 0.156, 0.039, 0.010 0.002 and 0 uM final concentrations. After 72 hours of compound addition, […] of Promega's CTG assay reagent was added and incubated at room temperature for 10 minutes. Chemiluminescence was read using a GloMax Discover instrument.

A short description of series [1]: Mouse Pharmacokinetic Studies. The format is in vivo. Conditions: male BALB/c mice, 3 mg/kg IV tail bolus, plasma. On the procedure: Samples were obtained from 3 male BALB/c mice at staggered time points. Each mouse was given a tail bolus injection of 3 mg/kg injection of Compound 70 formulated as an IV solution with DMSO: PEG400: Aqueous solution with 20% HP-β-CD (5:30:65, v:v:v) (adjusted by 1N HCl). Blood samples (collected into lithium heparin tubes) were obtained at predose, and at 5, 15, 30 min and at 1, 2-, 4-, 8- and 24-hour, post injection. Plasma was separated from blood and stored at −20° C. prior to analysis. Samples were assayed by a LC/MS/MS procedure [AB Sciex API 4000; ACE Excel 5 C4 Column (50 mm*2.1 mm); Mobile Phase A: 5 mM NH4OAc (with 0.05% FA); Mobile Phase B: ACN (with 0.1% FA)]. Pharmacokinetic parameters were obtained from plasma concentrations using the R program—PK Package, Basic Non-Compartmental Pharmacokinetics, Thomas Jaki and Martin J. Wolfsegger Version 1.3-3, Jan. 6, 2016.

PRMT5, sequence (O14744 2-637): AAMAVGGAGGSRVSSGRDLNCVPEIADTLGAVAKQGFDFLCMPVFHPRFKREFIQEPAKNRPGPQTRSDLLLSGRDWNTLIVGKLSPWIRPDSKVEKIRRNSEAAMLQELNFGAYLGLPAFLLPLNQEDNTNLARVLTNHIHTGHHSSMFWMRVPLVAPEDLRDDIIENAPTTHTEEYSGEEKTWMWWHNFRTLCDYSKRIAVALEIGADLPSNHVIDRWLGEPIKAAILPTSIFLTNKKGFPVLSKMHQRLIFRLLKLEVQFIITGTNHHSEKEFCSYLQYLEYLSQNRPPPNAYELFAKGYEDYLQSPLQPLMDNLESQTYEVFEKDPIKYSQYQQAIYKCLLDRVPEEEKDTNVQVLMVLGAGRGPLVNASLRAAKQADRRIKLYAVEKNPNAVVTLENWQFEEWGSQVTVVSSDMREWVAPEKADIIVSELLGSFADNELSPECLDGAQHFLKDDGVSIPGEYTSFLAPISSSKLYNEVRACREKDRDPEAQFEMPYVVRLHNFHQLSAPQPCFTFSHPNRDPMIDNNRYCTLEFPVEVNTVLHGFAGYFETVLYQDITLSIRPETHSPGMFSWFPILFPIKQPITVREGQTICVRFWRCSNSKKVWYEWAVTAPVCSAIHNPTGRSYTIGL
PRMT5, sequence (Q9BQA1 2-342 partner): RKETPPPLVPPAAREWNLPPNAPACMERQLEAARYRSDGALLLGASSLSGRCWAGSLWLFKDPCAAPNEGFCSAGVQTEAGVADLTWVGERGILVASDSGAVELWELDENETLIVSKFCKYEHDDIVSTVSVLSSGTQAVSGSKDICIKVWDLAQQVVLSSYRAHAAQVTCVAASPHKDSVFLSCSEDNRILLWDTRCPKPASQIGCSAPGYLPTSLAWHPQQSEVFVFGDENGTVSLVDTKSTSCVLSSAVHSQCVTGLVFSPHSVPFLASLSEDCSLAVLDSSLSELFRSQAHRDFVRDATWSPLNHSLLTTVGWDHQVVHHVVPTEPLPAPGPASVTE

The term IC50 denotes the concentration that gives 50% inhibition. Take `COc1ccc(-c2ccc3c(=O)n(C[C@H](O)CN4CCc5ccccc5C4)c(=O)n(CC4CC4)c3c2)cn1` [Compound 91, 1-(cyclopropylmethyl)-3-[(2R)-3-(3,4-dihydro-1H-isoquinolin-2-yl)-2-hydroxy-propyl]-7-(6-methoxy-3-pyridyl)quinazoline-2,4-dione]: the IC50 on PRMT5 worked out at 43 nM; in the series on Z-138 cells, 1930 nM.

Consider `O=c1c2ccccc2n(CC2CC2)c(=O)n1C[C@H](O)CN1CCc2ccccc2C1` [Compound 74, 1-(cyclopropylmethyl)-3-[(2R)-3-(3,4-dihydro-1H-isoquinolin-2-yl)-2-hydroxy-propyl]quinazoline-2,4-dione], for which the “IC50 Values” at PRMT5 is under 0.014 μMolar. The compound further gave an IC50 in the series with Z-138 cells of 2940 nM.

Take `O=c1c2cc(-c3ccc(F)cc3)ccc2n(CC(F)F)c(=O)n1C[C@H](O)CN1CCc2ccccc2C1` [Compound 94, 1-(2,2-difluoroethyl)-3-[(2R)-3-(3,4-dihydro-1H-isoquinolin-2-yl)-2-hydroxy-propyl]-6-(4-fluorophenyl)quinazoline-2,4-dione]: the 50% inhibitory concentration (IC50) against PRMT5 amounted to 45 nM; in the series on Z-138 cells, 10000 nM.

Regarding `O=c1c2ccc(Cl)cc2n(CC2CC2)c(=O)n1C[C@H](O)CN1CCc2ccccc2C1` [Compound 78, 7-chloro-1-(cyclopropylmethyl)-3-[(2R)-3-(3,4-dihydro-1H-isoquinolin-2-yl)-2-hydroxy-propyl]quinazoline-2,4-dione], the IC50 at PRMT5 was determined as 12 nM; in the series with Z-138 cells it was 1950 nM.

`O=c1c2ccccc2n(CC2CCC2)c(=O)n1C[C@H](O)CN1CCc2ccccc2C1` [Compound 92, 1-(cyclobutylmethyl)-3-[(2R)-3-(3,4-dihydro-1H-isoquinolin-2-yl)-2-hydroxy-propyl]quinazoline-2,4-dione]: the IC50 was found to be 36 nM at PRMT5 and 3630 nM in the series on Z-138 cells.

`O=c1c2cc(F)ccc2n(CC2CC2)c(=O)n1C[C@H](O)CN1CCc2ccccc2C1` [Compound 77, 1-(cyclopropylmethyl)-3-[(2R)-3-(3,4-dihydro-1H-isoquinolin-2-yl)-2-hydroxy-propyl]-6-fluoro-quinazoline-2,4-dione]: the IC50 against PRMT5 worked out at 63 nM.

`COc1ccc2c(=O)n(C[C@H](O)CN3CCc4ccccc4C3)c(=O)[nH]c2c1` [Compound 82, 3-[(2R)-3-(3,4-dihydro-1H-isoquinolin-2-yl)-2-hydroxy-propyl]-7-methoxy-1H-quinazoline-2,4-dione] returned an IC50 against PRMT5 of 66 nM.

The compound `O=c1[nH]c2cc(Br)ccc2c(=O)n1C[C@H](O)CN1CCc2ccccc2C1` [Compound 75, 7-bromo-3-[(2R)-3-(3,4-dihydro-1H-isoquinolin-2-yl)-2-hydroxy-propyl]-1H-quinazoline-2,4-dione] returned an IC50 against PRMT5 of 24 nM.

The AUC(0-inf) is the area under the concentration-time curve extrapolated to infinity. Low readings indicate less exposure, high ones more exposure. The MRT inf is the average time that molecules of a dose stay in the body. As a reminder, the clearance is a measure of how efficiently the substance is removed, as volume per time. A high value points to a high capacity for elimination. As usually defined, the half-life is the time in which the quantity being followed falls by half. With `CC(C)Cn1c(=O)n(C[C@H](O)CN2CCc3ccccc3C2)c(=O)c2ccc(Br)cc21` [Compound 70, 7-bromo-3-[(2R)-3-(3,4-dihydro-1H-isoquinolin-2-yl)-2-hydroxy-propyl]-1-isobutyl-quinazoline-2,4-dione], the “IC50 Values” against PRMT5 is reported as under 0.014 μMolar. In series [1], the AUC(0-inf) was determined as 748 ng·h/mL, the C0 amounted to 1520 ng/mL, the MRT inf is 1.22 h and the clearance stood at 66.9 mL/min/kg. In series [1], this compound showed a half-life of 1.56 h. Besides, the Vd in series [1] (read-out: Vss) came to 4.88 L/kg. Half-maximal inhibition in the series on Z-138 cells (IC50) was put at 673 nM.

Consider `O=c1c2ccc(Br)cc2n(CC2CC2)c(=O)n1C[C@H](O)CN1CCc2ccccc2C1` [Compound 80, 7-bromo-1-(cyclopropylmethyl)-3-[(2R)-3-(3,4-dihydro-1H-isoquinolin-2-yl)-2-hydroxy-propyl]quinazoline-2,4-dione], for which the IC50 against PRMT5 amounted to 9 nM; in the series on Z-138 cells it was 1120 nM.

As to `O=c1c2ccccc2n(CC2CC2(F)F)c(=O)n1C[C@H](O)CN1CCc2ccccc2C1` (stereo partly drawn) [Compound 90, 1-[(2,2-difluorocyclopropyl)methyl]-3-[(2R)-3-(3,4-dihydro-1H-isoquinolin-2-yl)-2-hydroxy-propyl]quinazoline-2,4-dione], half-maximal inhibition against PRMT5 (IC50) was put at 121 nM.

Turning to `COc1ccc2c(c1)c(=O)n(C[C@H](O)CN1CCc3ccccc3C1)c(=O)n2CC1CC1` [Compound 87, 1-(cyclopropylmethyl)-3-[(2R)-3-(3,4-dihydro-1H-isoquinolin-2-yl)-2-hydroxy-propyl]-6-methoxy-quinazoline-2,4-dione], half-maximal inhibition against PRMT5 (IC50) was put at 58 nM.

As for `Cc1cccc2c1c(=O)n(C[C@H](O)CN1CCc3ccccc3C1)c(=O)n2CC1CC1` [Compound 85, 1-(cyclopropylmethyl)-3-[(2R)-3-(3,4-dihydro-1H-isoquinolin-2-yl)-2-hydroxy-propyl]-5-methyl-quinazoline-2,4-dione], the IC50 against PRMT5 was determined as 29 nM.

`Cc1ccc2c(c1)c(=O)n(C[C@H](O)CN1CCc3ccccc3C1)c(=O)n2CC1CC1` [Compound 88, 1-(cyclopropylmethyl)-3-[(2R)-3-(3,4-dihydro-1H-isoquinolin-2-yl)-2-hydroxy-propyl]-6-methyl-quinazoline-2,4-dione] showed an IC50 at PRMT5 of 21 nM.

Regarding `O=c1c2ccccc2n(CC(F)F)c(=O)n1C[C@H](O)CN1CCc2ccccc2C1` [Compound 79, 1-(2,2-difluoroethyl)-3-[(2R)-3-(3,4-dihydro-1H-isoquinolin-2-yl)-2-hydroxy-propyl]quinazoline-2,4-dione], the IC50 on PRMT5 was determined as 29 nM; with Z-138 cells it was 2850 nM.

Turning to `O=c1[nH]c2ccccc2c(=O)n1C[C@H](O)CN1CCc2ccccc2C1` [Compound 64, 3-[(2R)-3-(3,4-dihydro-1H-isoquinolin-2-yl)-2-hydroxy-propyl]-1H-quinazoline-2,4-dione], half-maximal inhibition against PRMT5 (IC50) was put at 360 nM.

For the compound `O=c1c2ccccc2n(CCCC(F)(F)F)c(=O)n1C[C@H](O)CN1CCc2ccccc2C1` [Compound 93, 3-[(2R)-3-(3,4-dihydro-1H-isoquinolin-2-yl)-2-hydroxy-propyl]-1-(4,4,4-trifluorobutyl)quinazoline-2,4-dione], on PRMT5, the IC50 is 122 nM.
